For this experiment, the target named is Beta-3 Adrenergic Receptor (Homo sapiens (Human), UniProt P13945). Description: HTRF cAMP antagonist assay (IC50 determination). Type of experiment: cell-based. To be noted: CHO-K1 cells stably expressing recombinant receptor; antagonism of isoproterenol at EC90; cAMP readout. The method, then:
HTRF cAMP assays were performed according to manufacturer's instructions (Cisbio, cAMP Dynamic 2 Assay Kit; #62AM4PEJ). CHO-K1 cells stably expressing recombinant receptor were harvested and suspended in warm PBS to make a 300,000 cells/mL stock. This cell suspension was dispensed into 384 well assay plates (PerkinElmer ProxiPlate #6008280) at 5 μL per well (1500 cells/well) along with a cAMP standard curve.
Compounds were dissolved and serially diluted (5-fold) in DMSO to generate a 10-point dose response stock. The stock was then diluted 100-fold in assay buffer (PBS containing 1 mM IBMX) before a volume of 2.5 μL was added to the cells (the final, top concentration of compound in the dose-response is typically 10 or 100 μM). After a brief incubation, 2.5 μL of isoproterenol stock, prepared at a concentration 4 times its EC90 at the receptor of interest, was added to the wells. The EC90 for isoproterenol, a beta-adrenergic agonist, was determined in separate experiments using standard methods to measure agonist potencies.
Following a 1-hour incubation at room temperature, 5 μL of cAMP-D2 Reagent diluted in Lysis Buffer was added to each well followed by 5 μL of Cryptate Reagent. Plates were further incubated at room temperature for 1 hour prior to reading. Time resolved fluorescence measurements were collected on a suitable, HTRF-capable plate reader.
Counts from the plate reader were fit to the cAMP standard curve on the assay plate in order to determine cAMP concentrations in each well, and these values were used to construct dose-response curves to obtain IC50 values.
In general terms: Time-resolved FRET reads energy transfer from a long-lived donor to a nearby acceptor.

Sequence of Beta-3 Adrenergic Receptor (P13945 whole entry, species assumed): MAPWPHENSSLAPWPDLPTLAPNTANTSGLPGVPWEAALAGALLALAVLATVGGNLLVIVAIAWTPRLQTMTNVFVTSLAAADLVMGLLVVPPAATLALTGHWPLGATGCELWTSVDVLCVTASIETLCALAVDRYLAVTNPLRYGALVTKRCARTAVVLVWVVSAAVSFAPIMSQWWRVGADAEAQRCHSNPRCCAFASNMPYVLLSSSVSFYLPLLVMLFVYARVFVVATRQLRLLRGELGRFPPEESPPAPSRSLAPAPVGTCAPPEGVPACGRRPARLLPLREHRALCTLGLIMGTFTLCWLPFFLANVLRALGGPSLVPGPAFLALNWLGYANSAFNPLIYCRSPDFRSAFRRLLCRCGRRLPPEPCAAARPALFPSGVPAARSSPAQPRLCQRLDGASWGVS

For the molecule `CCOc1ccc(-c2ccc(C3(N)CC3)cc2)cc1S(=O)(=O)N1CCC2(CC1)C[C@@H](NC[C@H](O)COc1cccc(S(=O)(=O)CC)c1)CO2` [Compound 257, (S)-1-((R)-8-(4′-(1-aminocyclopropyl)-4-ethoxybiphenyl-3-ylsulfonyl)-1-oxa-8-azaspiro[4.5]decan-3-ylamino)-3-(3-(ethylsulfonyl)phenoxy)propan-2-ol], the concentration for half-maximal inhibition (IC50) (as a rule, the concentration that inhibits the measured activity by half) was 37.8 nM.

Consider `CCCS(=O)(=O)c1cccc(OC[C@@H](O)CNC2COC3(CCN(S(=O)(=O)c4ccc5ccccc5c4)CC3)C2)c1` (stereo partly drawn) [Compound 6, (2S)-1-(8-(naphthalen-2-ylsulfonyl)-1-oxa-8-azaspiro[4.5]decan-3-ylamino)-3-(3-(propylsulfonyl)phenoxy)propan-2-ol], for which the IC50 was 16.5 nM.

As to `CS(=O)(=O)c1cccc(OC[C@@H](O)CNC2COC3(CCN(S(=O)(=O)c4cccc(C#N)c4)CC3)C2)c1` (stereo partly drawn) [Compound 55, 3-(3-((S)-2-hydroxy-3-(3-(methylsulfonyl)phenoxy)propylamino)-1-oxa-8-azaspiro[4.5]decan-8-ylsulfonyl)benzonitrile], the 50% inhibitory concentration (IC50) was 30.5 nM.

As for `C[C@@H]1CN(C)c2cc(S(=O)(=O)N3CCC4(CC3)C[C@@H](NC[C@H](O)COc3cccc(S(=O)(=O)C5CC5)c3)CO4)cnc2O1` [Compound 305, (S)-1-(3-(cyclopropylsulfonyl)phenoxy)-3-((R)-8-((R)-1,3-dimethyl-2,3-dihydro-1H-pyrido[2,3-b][1,4]oxazin-7-ylsulfonyl)-1-oxa-8-azaspiro[4.5]decan-3-ylamino)propan-2-ol], the IC50 stood at 17.1 nM.

`CCC(C)(C)NCc1ccc(-c2cccc(S(=O)(=O)N3CCC4(CC3)C[C@@H](NC[C@H](O)COc3cccc(S(=O)(=O)C5(CO)CC5)c3)CO4)c2)cc1` [Compound 263, (S)-1-(3-(1-(hydroxymethyl)cyclopropylsulfonyl)phenoxy)-3-((R)-8-(4′-((tert-pentylamino)methyl)biphenyl-3-ylsulfonyl)-1-oxa-8-azaspiro[4.5]decan-3-ylamino)propan-2-ol]: the IC50 turned out to be 755 nM.

In the case of `COCS(=O)(=O)c1cccc(OC[C@@H](O)CN[C@H]2COC3(CCN(S(=O)(=O)c4c[nH]c5ccccc45)CC3)C2)c1` [Compound 312, (S)-1-((R)-8-(1H-indol-3-ylsulfonyl)-1-oxa-8-azaspiro[4.5]decan-3-ylamino)-3-(3-(methoxymethylsulfonyl)phenoxy)propan-2-ol], the IC50 came out at 31.5 nM.

Regarding `COCS(=O)(=O)c1cccc(OC[C@@H](O)CN[C@H]2COC3(CCN(S(=O)(=O)c4ccc5ncccc5c4)CC3)C2)c1` [Compound 131, (S)-1-(3-(methoxymethylsulfonyl)phenoxy)-3-((R)-8-(quinolin-6-ylsulfonyl)-1-oxa-8-azaspiro[4.5]decan-3-ylamino)propan-2-ol], the IC50 was determined as 23.7 nM.

Turning to `CCOc1ccc(-c2ccc(CN)cc2)cc1S(=O)(=O)N1CCC2(CC1)C[C@H](NC[C@H](O)COc1cccc(S(=O)(=O)CC)c1)CO2` [Compound 226, (S)-1-((S)-8-(4′-(aminomethyl)-4-ethoxybiphenyl-3-ylsulfonyl)-1-oxa-8-azaspiro[4.5]decan-3-ylamino)-3-(3-(ethylsulfonyl)phenoxy)propan-2-ol], the IC50 came out at 12.5 nM.

Consider `O=S(=O)(c1cccc(-c2ccc(CN3CCC3)cc2)c1)N1CCC2(CC1)C[C@H](NC[C@H](O)COc1cccc(S(=O)(=O)C3(CO)CC3)c1)CO2` [Compound 243, (S)-1-((S)-8-(4′-(azetidin-1-ylmethyl)biphenyl-3-ylsulfonyl)-1-oxa-8-azaspiro[4.5]decan-3-ylamino)-3-(3-(1-(hydroxymethyl)cyclopropylsulfonyl)phenoxy)propan-2-ol], for which the IC50 turned out to be 35 nM.

In the case of `O=S(=O)(CC1CCC1)c1cccc(OC[C@@H](O)CNC2COC3(CCN(S(=O)(=O)c4ccc5ccccc5c4)CC3)C2)c1` (stereo partly drawn) [Compound 13, (2S)-1-(3-(cyclobutylmethylsulfonyl)phenoxy)-3-(8-(naphthalen-2-ylsulfonyl)-1-oxa-8-azaspiro[4.5]decan-3-ylamino)propan-2-ol], the IC50 stood at 97.8 nM.

(Values after patent US10927123B2, “Modulators of the beta-3 adrenergic receptor useful for the treatment or prevention of disorders related thereto” (Arena Pharmaceuticals, Inc., priority 2016, dated 2021).)
